From patent publication EP0494754A1, “3-hydroxypyridin-4-one derivatives as pharmaceutical compositions” (BRITISH TECHNOLOGY GROUP LTD, priority 1991, dated 1992)

Columns and labels:
Type in all cases: cell-based
[1] = tested on: P. falciparum; test: Inhibition of growth of P. falciparum in red cell culture (tritiated hypoxanthine uptake, continuous exposure to chelator)
Description: (A) An uncloned strain of P. falciparum, ITO4, was grown on blood group O red cells using a modification of the method described by Trager et al in Science, 1976, […], 673. An atmopshere consisting of 1% oxygen, 3% carbon dioxide and 96% nitrogen was maintained throughout the experiments. Red cells were suspended at a hematocrit of 3% in RPMI 1640 that had been supplemented with 10% v/v human serum, 2 g/l glucose, 4 mM NaOH, 25 µg/ml gentamicin, 1.9 mM glutamine and 25 mM HEPES to form complete medium. For experimental purposes the red cells were then further diluted with the same medium to a final hematocrit of 1.5%. Synchronised parasite cultures were obtained using a combination of sorbitol lysis and gelatin flotation, as described respectively by Jensen et al in Am. J. Trop. Med. Hyg., 1978, 27, 1274 and Lambros et al in J. Parasitol., 1979, 65, 418, thus ensuring that only young ring forms remained. The starting parasitemia in each experiment was between 0.1 and 0.5%.
A red cell suspension containing only recently synchronised ring parasites was treated with 0.2 µCi of tritiated hypoxanthine per 100 µl of red cell suspension and one of ten chelating agents as identified in the Table was added in complete medium to the suspension in an amount such as to produce an iron binding concentration of 100 µmol of iron per litre (all of the chelators combine with iron in a ratio of 3 moles of chelator:1 mole of iron apart from the chelator number 10, desferrioxamine, which combines in a 1:1 molar ratio). The test cultures were immediately dispersed in 200 µl aliquots into 96 well microculture plates. Each chelator was tested in three or more wells and the whole experiment was carried out at least twice for each chelator. Control cultures were used in each experiment which contained no iron chelator.
The growth of the P. falciparum parasites was assessed both by light microscopy examination of thin films that had been stained with Giemsa and through measurement of tritiated hypoxanthine uptake, the cell cultures being harvested onto glass fibre filters and radioactivity, in terms of beta emission from each well, being measured in a flat bed liquid scintillation counter as described by Potter et al in Phys. Med. Biol., 1986, 31(4), 361.
The chelators tested consisted of 1-(2′-carboxyethyl)-3-hydroxy-2-methylpyridin-4-one (R₁ = CH₂CH₂CO₂H, R₂ = CH₃, R₃ = R₄ = H; compound 1) and, for the purposes of comparison with this chelator, nine other chelators not of formula (I) as defined hereinbefore, of which compounds 2 to 9 are 3-hydroxypyridin-4-ones and compound 10 is desferrioxamine. […] These findings were supported by a morphological examination of red cells sampled from the cultures. […] (B) The effect of using different dosage levels than the 100 µmol/l level used in (A) was studied employing the same procedure but using four dosage levels of 10 µmol/l, 25 µmol/l, 50 µmol/l and […]. Only the eight chelators which produced an inhibitory effect at 100 µmol/l were studied and controls containing no iron chelator were again employed.

[2] = tested on: P. falciparum; test: Red cell reinvasion at the beginning of the second parasite cycle (light microscopy)
Description: A study was made of red cells from cultures involving various dosage levels harvested at the beginning of the second parasite cycle, when young rings could be identified in untreated control cultures in order to determine whether or not red cell reinvasion had occurred in the cultures that had been exposed to a chelator. […] However, for the 3-hydroxypyridin-4-one compounds 1 to 6 and 9, young ring parasites were frequently found after incubation at a 25 µmol/l dosage level of the chelator and were always found at a 10 µmol/l dosage level, no significant differences being seen between the different compounds. At 50 µmol/l and 100 µmol/l no evidence of reinvasion was found. Thus, although the 3-hydroxypyridin-4-ones do produce growth inhibition at the lower dosage levels of 10 µmol/l and 25 µmol/l, higher levels than this are required to produce a cytocidal action.

[3] = tested on: MEL cells, clone 585; test: Inhibition of growth of murine erythroleukaemia (MEL) cells, cell counting; details: 50 µmol/l iron binding concentration; after 30 hours; Figure 2
Description: MEL cells, clone 585, were grown in suspension culture at 37°C in RPMI 1640 that had been supplemented with 13% v/v foetal calf serum, 25 µl/ml gentamicin, 1.9 mM glutamine and 2% diaminopurine as described by Peto et al in Br. J. Haematol., 1983, 54, 623. The cultures were maintained in an atmosphere containing 5% carbon dioxide and passaged every 3-4 days at a seeding concentration of 1-2 x 10⁴/ml to ensure that the cells were continually in logarithmic growth phase. Under these conditions, the doubling time for cell growth was 30-36 hours.
10 ml volumes of cell suspension were incubated in 50 ml flasks with each of the ten chelators identified in the Table at a 50 µmol/l iron binding concentration, controls being employed which contained no chelator. 400 µl aliquots were removed in duplicate for growth assessment at 24 hour intervals over the next four days. The experiment was repeated on three separate occasions, the initial cell concentration in each case being 2-3 x 10⁴ cells/ml. Cell growth was assessed both by examination of cultures using light microscopy and by cell counting. At various times throughout each experiment, 400 µl culture was added to 19.6 ml Isoton and the number of particles counted using a Coulter Counter ZN set at threshold 20 and attenuation 0.4
The effect of the different chelators on growth of the MEL cells after 30 hours was compared with the effect produced after a similar time by the same chelators at a 50 µmol/l iron binding concentration using the procedure described in Example 2(A). The results are illustrated in Figure 2. It will be seen that the compounds 2, 3, 4, 5, 6, 9 and 10 inhibited growth of MEL cells and of P. falciparum, the minimum growth inhibition being 80% and 70% respectively. […] When these two groups of chelators were examined together a close linear correlation (r = 0.978) was found between the degree of growth inhibition produced in both types of cell for each chelator studied. The compound 1 was distinguished from all of the other chelators in being the only one to have no significant inhibitory effect on the growth of MEL cells (<10%) whilst at the same time producing a substantial inhibitory effect on the growth of P. falciparum (>75%).

- IC50 ([1]; Plasmodium falciparum, four dosage levels (iron binding concentration), same procedure as (A), read-out: ID50 (the source's name)): 10 to 20 µM
Structure (SMILES): CC(=O)N(O)CCCCCNC(=O)CCC(=O)N(O)CCCCCNC(=O)CCC(=O)N(O)CCCCCN [compound 10, Desferrioxamine]
- growth inhibition of P. falciparum ([1]; 50 µmol/l iron binding concentration, after 30 hours, Figure 2): ≥ 70%
- percentage inhibition of growth after 30 hours as compared with the controls ([1]; iron binding concentration of 100 µmol of iron per litre, 30 hours, Figure 1): more than 65%
- red cell reinvasion (young ring parasites) ([2]; 10 µmol/l dosage level): always found
- red cell reinvasion (young ring parasites) ([2]; 25 µmol/l dosage level): No evidence was found of reinvasion
- red cell reinvasion (young ring parasites) ([2]; 50 µmol/l dosage level): No evidence was found of reinvasion
- red cell reinvasion (young ring parasites) ([2]; 100 µmol/l dosage level): No evidence was found of reinvasion
- growth inhibition of MEL cells [3]: ≥ 80%
